# Measured values: EP2193713A1, “Method for fighting animal pests without damaging pollinating insects” (Bayer CropScience AG, priority 2008, dated 2010)
# Read-outs that look alike come from different tables or passages of the source.
# Assays:
# Type in all cases: in vivo
# [1] = system: Apis mellifera
# Excerpt: (§1) Der Test wurde gemäß EPPO (European Plant Protection Organisation) Leitlinie 170 wie folgt durchgeführt:
# (§2) Die Mortalität von Arbeiterbienen vor dem Bienenstock wird mittels einer Falle für tote Bienen (dead bee trap) bestimmt. Die Falle besteht aus Maschendraht und ist vor dem Bienenstock angebracht. Einzelne, lebende Bienen können die Maschen des Drahts passieren, der Transport toter Bienen durch die Maschen ist nicht möglich, weswegen tote Bienen sich in der Falle ansammeln. Tabelle 1 (siehe auch Figur 1)
# [2] = system: Apis mellifera; experiment: Tunnel test / spray application / bees: brood development (share of comb cells); conditions: for Brutentwicklung: result in words, 75 und 150 g a.s./ha
# Excerpt: as §1
# Über alle Waben eines Bienenstocks wird der jeweilige Anteil an Zellen bestimmt, der durch Pollen, Nektar, Eier, Larven oder Puppen belegt ist bzw. leer ist. […]
# [3] = system: Bombus terrestris; experiment: Tent test / drench application / bumblebees: pollination activity on tomato; conditions: for Zahl der Blüten: markierte Blüten / Zahl der Blüten: offene Blüten: 20 mg a.s./pl.
# Excerpt: (§3) Der Versuch wurde wie folgt durchgeführt:
# Bei Tomaten kommt es durch den Besuch von Hummeln zu einer Farbveränderung der Staubgefäße (markierte Blüten). Es wurde die Zahl offener und markierter Blüten bestimmt. Tabelle 8 (siehe auch Figur 8)
# [4] = system: Apis mellifera; experiment: Tunnel test / spray application / bees: acute mortality of pupae in front of the hive
# Excerpt: as §1
# Tabelle 2 (siehe auch Figur 2)
# [5] = system: Bombus terrestris; experiment: Tent test / drench application / bumblebees: flight activity at the hive; conditions: for Flugaktivität am Stock, Zahl der Hummeln / 10 min: 20 mg a.s./pl.
# Experimental: as §3
# Die Zahl der Hummeln, die im Zeitraum von 10 min in den Stock geflogen sind oder diesen verlassen haben wurde bestimmt. Tabelle 7 (siehe auch Figur 7)
# [6] = system: Apis mellifera; experiment: Tent test / drench application / bees: foraging activity; conditions: for Aktivität der Nahrungssuche, Zahl der Bienen / min / 4 m^2: 20 mg a.s./pl.
# Excerpt: Der Test wurde wie folgt durchgeführt:
# [7] = system: Apis mellifera; conditions: for Zahl toter Arbeiterbienen: 20 mg a.s./pl.
# Excerpt: as §2
# [8] = 75 g a.s./ha, 0 DAA c (17:15 Uhr)
# [9] = 75 g a.s./ha, -3 DAA (before application)
# [10] = 150 g a.s./ha, 0 DAA c (17:15 Uhr)
# [11] = 150 g a.s./ha, -3 DAA (before application)
# [12] = 75 g a.s./ha, 1 Tag vor Applikation
# [13] = 75 g a.s./ha, 6 Tage nach Applikation
# [14] = 75 g a.s./ha, 14 Tage nach Applikation
# [15] = 75 g a.s./ha, 27 Tage nach Applikation
# [16] = 150 g a.s./ha, 1 Tag vor Applikation
# [17] = 150 g a.s./ha, 6 Tage nach Applikation
# [18] = 150 g a.s./ha, 14 Tage nach Applikation
# [19] = 150 g a.s./ha, 27 Tage nach Applikation
# [20] = result in words, 20 mg a.s. / Pflanze, 2 applications (Tag 0 und Tag 14)
structure (smiles),measurement,setting,value
"O=C1C=C(N(Cc2ccc(Cl)nc2)CC(F)F)CO1 [I-5, 4-{[(6-Chlorpyrid-3-yl)methyl](2,2-difluorethyl)amino}furan-2(5H)-on]",Zahl toter Arbeiterbienen,"[1]; 75 g a.s./ha, 0 DAA b (15:15 Uhr)",0
same,Zahl toter Arbeiterbienen,[1]; [8],"0,7"
same,Zahl toter Arbeiterbienen,"[1]; 75 g a.s./ha, 1 DAA",0
same,Zahl toter Arbeiterbienen,"[1]; 75 g a.s./ha, 2 DAA","0,3"
same,Zahl toter Arbeiterbienen,"[1]; 75 g a.s./ha, 3 DAA","0,3"
same,Zahl toter Arbeiterbienen,"[1]; 75 g a.s./ha, 4 DAA","3,7"
same,Zahl toter Arbeiterbienen,"[1]; 75 g a.s./ha, 5 DAA","0,3"
same,Zahl toter Arbeiterbienen,"[1]; 75 g a.s./ha, 6 DAA","4,3"
same,Zahl toter Arbeiterbienen,"[1]; 75 g a.s./ha, 11 DAA",0
same,Zahl toter Arbeiterbienen,[1]; [9],"0,3"
same,Zahl toter Arbeiterbienen,"[1]; 150 g a.s./ha, 0 DAA b (15:15 Uhr)","1,3"
same,Zahl toter Arbeiterbienen,[1]; [10],"0,3"
same,Zahl toter Arbeiterbienen,"[1]; 150 g a.s./ha, 1 DAA",0
same,Zahl toter Arbeiterbienen,"[1]; 150 g a.s./ha, 2 DAA",0
same,Zahl toter Arbeiterbienen,"[1]; 150 g a.s./ha, 3 DAA",0
same,Zahl toter Arbeiterbienen,"[1]; 150 g a.s./ha, 4 DAA","1,7"
same,Zahl toter Arbeiterbienen,"[1]; 150 g a.s./ha, 5 DAA","0,7"
same,Zahl toter Arbeiterbienen,"[1]; 150 g a.s./ha, 6 DAA",2
same,Zahl toter Arbeiterbienen,"[1]; 150 g a.s./ha, 11 DAA","1,7"
same,Zahl toter Arbeiterbienen,[1]; [11],"0,3"
same,Mortalität von Arbeiterbienen vor dem Bienenstock,"[1]; result in words, tunnel test, spray, I-5 75 und 150 g a.s./ha, Thiamethoxam 50 g a.s./ha",keine Mortalität
same,Anteil an Zellen: Eier,[2]; [12],"13,9%"
same,Anteil an Zellen: Larven,[2]; [12],"9,2%"
same,Anteil an Zellen: Leer,[2]; [12],"26,7%"
same,Anteil an Zellen: Nektar,[2]; [12],"12,5%"
same,Anteil an Zellen: Pollen,[2]; [12],"3,1%"
same,Anteil an Zellen: Puppen,[2]; [12],"34,7%"
same,Anteil an Zellen: Eier,[2]; [13],"14,7%"
same,Anteil an Zellen: Larven,[2]; [13],"8,3%"
same,Anteil an Zellen: Leer,[2]; [13],"32,8%"
same,Anteil an Zellen: Nektar,[2]; [13],"12,5%"
same,Anteil an Zellen: Pollen,[2]; [13],"4,4%"
same,Anteil an Zellen: Puppen,[2]; [13],"27,2%"
same,Anteil an Zellen: Eier,[2]; [14],"21,4%"
same,Anteil an Zellen: Larven,[2]; [14],"19,7%"
same,Anteil an Zellen: Leer,[2]; [14],"30,6%"
same,Anteil an Zellen: Nektar,[2]; [14],"8,6%"
same,Anteil an Zellen: Pollen,[2]; [14],5%
same,Anteil an Zellen: Puppen,[2]; [14],"14,7%"
same,Anteil an Zellen: Eier,[2]; [15],"16,7%"
same,Anteil an Zellen: Larven,[2]; [15],"6,7%"
same,Anteil an Zellen: Leer,[2]; [15],"20,7%"
same,Anteil an Zellen: Nektar,[2]; [15],"13,2%"
same,Anteil an Zellen: Pollen,[2]; [15],"3,3%"
same,Anteil an Zellen: Puppen,[2]; [15],"39,4%"
same,Anteil an Zellen: Eier,[2]; [16],"13,6%"
same,Anteil an Zellen: Larven,[2]; [16],"16,4%"
same,Anteil an Zellen: Leer,[2]; [16],"20,8%"
same,Anteil an Zellen: Nektar,[2]; [16],"14,2%"
same,Anteil an Zellen: Pollen,[2]; [16],"1,4%"
same,Anteil an Zellen: Puppen,[2]; [16],"33,6%"
same,Anteil an Zellen: Eier,[2]; [17],15%
same,Anteil an Zellen: Larven,[2]; [17],"6,1%"
same,Anteil an Zellen: Leer,[2]; [17],"29,4%"
same,Anteil an Zellen: Nektar,[2]; [17],"14,4%"
same,Anteil an Zellen: Pollen,[2]; [17],"3,9%"
same,Anteil an Zellen: Puppen,[2]; [17],"31,1%"
same,Anteil an Zellen: Eier,[2]; [18],"17,8%"
same,Anteil an Zellen: Larven,[2]; [18],"16,7%"
same,Anteil an Zellen: Leer,[2]; [18],"34,4%"
same,Anteil an Zellen: Nektar,[2]; [18],"12,2%"
same,Anteil an Zellen: Pollen,[2]; [18],"4,2%"
same,Anteil an Zellen: Puppen,[2]; [18],"14,7%"
same,Anteil an Zellen: Eier,[2]; [19],"15,3%"
same,Anteil an Zellen: Larven,[2]; [19],"7,2%"
same,Anteil an Zellen: Leer,[2]; [19],"21,9%"
same,Anteil an Zellen: Nektar,[2]; [19],"16,4%"
same,Anteil an Zellen: Pollen,[2]; [19],"4,2%"
same,Anteil an Zellen: Puppen,[2]; [19],35%
same,Brutentwicklung,[2]; 6 Tage nach Applikation,keine Änderung
same,Brutentwicklung,[2]; 14 Tage nach Applikation,keine Änderung
same,Brutentwicklung,[2]; 27 Tage nach Applikation,keine Änderung
same,Zahl der Blüten: markierte Blüten,[3]; DAA 13 after first application,"59,4"
same,Zahl der Blüten: offene Blüten,[3]; DAA 13 after first application,"67,3"
same,Zahl der Blüten: markierte Blüten,[3]; DAA 22 after first application,"53,7"
same,Zahl der Blüten: offene Blüten,[3]; DAA 22 after first application,"59,3"
same,Bestäubungsaktivität der Hummeln,[3]; [20],keine Änderung
same,Zahl toter Puppen,[4]; [8],0
same,Zahl toter Puppen,"[4]; 75 g a.s./ha, 1 DAA",0
same,Zahl toter Puppen,"[4]; 75 g a.s./ha, 2 DAA","0,3"
same,Zahl toter Puppen,"[4]; 75 g a.s./ha, 5 DAA",0
same,Zahl toter Puppen,"[4]; 75 g a.s./ha, 6 DAA",0
same,Zahl toter Puppen,"[4]; 75 g a.s./ha, 11 DAA","0,3"
same,Zahl toter Puppen,"[4]; 75 g a.s./ha, 14 DAA",0
same,Zahl toter Puppen,"[4]; 75 g a.s./ha, 18 DAA",0
same,Zahl toter Puppen,"[4]; 75 g a.s./ha, 21 DAA",0
same,Zahl toter Puppen,"[4]; 75 g a.s./ha, 25 DAA",0
same,Zahl toter Puppen,[4]; [9],0
same,Zahl toter Puppen,[4]; [10],0
same,Zahl toter Puppen,"[4]; 150 g a.s./ha, 1 DAA",0
same,Zahl toter Puppen,"[4]; 150 g a.s./ha, 2 DAA",0
same,Zahl toter Puppen,"[4]; 150 g a.s./ha, 5 DAA",0
same,Zahl toter Puppen,"[4]; 150 g a.s./ha, 6 DAA",0
same,Zahl toter Puppen,"[4]; 150 g a.s./ha, 11 DAA",0
same,Zahl toter Puppen,"[4]; 150 g a.s./ha, 14 DAA","0,7"
same,Zahl toter Puppen,"[4]; 150 g a.s./ha, 18 DAA",0
same,Zahl toter Puppen,"[4]; 150 g a.s./ha, 21 DAA",0
same,Zahl toter Puppen,"[4]; 150 g a.s./ha, 25 DAA",0
same,Zahl toter Puppen,[4]; [11],0
same,Mortalität von Puppen vor dem Bienenstock,"[4]; result in words, tunnel test, spray, I-5 75 und 150 g a.s./ha, Fenoxycarb 150 g a.s./ha",keine Mortalität
same,"Flugaktivität am Stock, Zahl der Hummeln / 10 min",[5]; 0 DAA,9 Hummeln / 10 min
same,"Flugaktivität am Stock, Zahl der Hummeln / 10 min",[5]; 6 DAA after first application,11 Hummeln / 10 min
same,"Flugaktivität am Stock, Zahl der Hummeln / 10 min",[5]; 8 DAA after first application,15 Hummeln / 10 min
same,"Flugaktivität am Stock, Zahl der Hummeln / 10 min",[5]; 13 DAA after first application,11 Hummeln / 10 min
same,"Flugaktivität am Stock, Zahl der Hummeln / 10 min",[5]; 20 DAA after first application,12 Hummeln / 10 min
same,"Flugaktivität am Stock, Zahl der Hummeln / 10 min",[5]; 23 DAA after first application,14 Hummeln / 10 min
same,"Flugaktivität am Stock, Zahl der Hummeln / 10 min",[5]; 27 DAA after first application,11 Hummeln / 10 min
same,"Flugaktivität am Stock, Zahl der Hummeln / 10 min",[5]; 34 DAA after first application,6 Hummeln / 10 min
same,"Flugaktivität am Stock, Zahl der Hummeln / 10 min",[5]; -1 DAA (before first application),13 Hummeln / 10 min
same,Flugaktivität der Hummeln,[5]; [20],keine Änderung
same,"Aktivität der Nahrungssuche, Zahl der Bienen / min / 4 m^2",[6]; 5 DAA,26 Bienen / min / 4 m^2
same,"Aktivität der Nahrungssuche, Zahl der Bienen / min / 4 m^2",[6]; 6 DAA b (14:30 Uhr),73 Bienen / min / 4 m^2
same,"Aktivität der Nahrungssuche, Zahl der Bienen / min / 4 m^2",[6]; 7 DAA,21 Bienen / min / 4 m^2
same,"Aktivität der Nahrungssuche, Zahl der Bienen / min / 4 m^2",[6]; 8 DAA,70 Bienen / min / 4 m^2
same,"Aktivität der Nahrungssuche, Zahl der Bienen / min / 4 m^2",[6]; 9 DAA,41 Bienen / min / 4 m^2
same,"Aktivität der Nahrungssuche, Zahl der Bienen / min / 4 m^2",[6]; 11 DAA,31 Bienen / min / 4 m^2
same,"Aktivität der Nahrungssuche, Zahl der Bienen / min / 4 m^2",[6]; 13 DAA,86 Bienen / min / 4 m^2
same,"Aktivität der Nahrungssuche, Zahl der Bienen / min / 4 m^2",[6]; 15 DAA,43 Bienen / min / 4 m^2
same,"Aktivität der Nahrungssuche, Zahl der Bienen / min / 4 m^2",[6]; 16 DAA,51 Bienen / min / 4 m^2
same,"Aktivität der Nahrungssuche, Zahl der Bienen / min / 4 m^2",[6]; 17 DAA,98 Bienen / min / 4 m^2
same,"Aktivität der Nahrungssuche, Zahl der Bienen / min / 4 m^2",[6]; 18 DAA,71 Bienen / min / 4 m^2
same,Aktivität der Nahrungssuche,"[6]; result in words, tent test, drench, I-5 20 mg a.s. / Pflanze, Thiamethoxam 10 mg a.s. / Pflanze (13 Tage nach Applikation)",keine Änderung
same,Zahl toter Arbeiterbienen,[7]; 6 DAA a (9:30 Uhr),8
same,Zahl toter Arbeiterbienen,[7]; 6 DAA b (14:30 Uhr),2
same,Zahl toter Arbeiterbienen,[7]; 7 DAA,8
same,Zahl toter Arbeiterbienen,[7]; 8 DAA,0
same,Zahl toter Arbeiterbienen,[7]; 9 DAA,0
same,Zahl toter Arbeiterbienen,[7]; 10 DAA,7
same,Zahl toter Arbeiterbienen,[7]; 11 DAA,2
same,Zahl toter Arbeiterbienen,[7]; 14 DAA,1
same,Zahl toter Arbeiterbienen,[7]; 16 DAA,1
same,Zahl toter Arbeiterbienen,[7]; 18 DAA,2
same,Mortalität von Arbeiterbienen vor dem Bienenstock,"[7]; result in words, tent test, drench, I-5 20 mg a.s. / Pflanze, Thiamethoxam 10 mg a.s. / Pflanze",keine Mortalität
